Reference: the CheMixHub viscosity set

Test: xn = mol fraction of the nth substance listed

CC1CCCCC1 + CCCCO
303.15 K, 101.33 kPa
Settings	viscosity [mPa·s]
x1 = 0.1	1.825
x1 = 0.2604	1.383
x1 = 0.42	1.072
x1 = 0.5788	0.854
x1 = 0.7414	0.719
x1 = 0.9013	0.643
x2 = 0.0995	0.6691
x2 = 0.2019	0.7305
x2 = 0.3088	0.8105
x2 = 0.3988	0.89
x2 = 0.5011	0.9898
x2 = 0.5989	1.122
x2 = 0.6911	1.272
x2 = 0.7839	1.45
x2 = 0.9179	1.858

CCCNCCC + CCCCO
viscosity [mPa·s]
Settings	303.15 K	313.15 K
101 kPa, x1 = 0.01005	2.225	–
101 kPa, x1 = 0.01919	2.196	–
101 kPa, x1 = 0.03366	2.165	–
101 kPa, x1 = 0.0409	2.145	–
101 kPa, x1 = 0.04956	2.121	–
101 kPa, x1 = 0.05853	2.098	–
101 kPa, x1 = 0.07021	2.064	–
101 kPa, x1 = 0.07906	2.04	–
101 kPa, x1 = 0.09184	2.006	–
101.33 kPa, x1 = 0.0954	2.038	1.621
101.33 kPa, x1 = 0.1904	1.797	1.426
101.33 kPa, x1 = 0.2859	1.567	1.252
101.33 kPa, x1 = 0.4163	1.299	1.031
101.33 kPa, x1 = 0.5205	1.106	0.8851
101.33 kPa, x1 = 0.615	0.9506	0.7697
101.33 kPa, x1 = 0.7107	0.8177	0.6675
101.33 kPa, x1 = 0.8108	0.6968	0.5735
101.33 kPa, x1 = 0.8924	0.6105	0.5037

CCOC(=O)c1ccccc1 + CCCCO
viscosity [mPa·s], 101.3 kPa
Settings	x1 = 0.0664	x1 = 0.1379	x1 = 0.2152	x1 = 0.299	x1 = 0.3901	x1 = 0.4897	x1 = 0.5988	x1 = 0.719	x1 = 0.852
303 K	2.029	2.002	1.967	1.935	1.902	1.874	1.839	1.809	1.78
308 K	1.87	1.837	1.814	1.783	1.754	1.713	1.679	1.646	1.618
313 K	1.599	1.582	1.567	1.559	1.54	1.52	1.499	1.484	1.47
318 K	1.444	1.439	1.426	1.42	1.407	1.4	1.39	1.381	1.372
323 K	1.324	1.318	1.309	1.301	1.29	1.284	1.274	1.269	1.259

CCCNCCC + CCCCOCCO
viscosity [mPa·s], 100 kPa
Settings	298.15 K	303.15 K	308.15 K
x2 = 0.05	0.558	0.519	0.489
x2 = 0.1003	0.62	0.576	0.538
x2 = 0.1502	0.691	0.64	0.597
x2 = 0.1999	0.775	0.709	0.662
x2 = 0.2999	0.982	0.888	0.826
x2 = 0.3998	1.254	1.118	1.035
x2 = 0.5001	1.549	1.37	1.255
x2 = 0.5999	1.887	1.654	1.51
x2 = 0.6997	2.216	1.935	1.752
x2 = 0.7999	2.527	2.18	1.97
x2 = 0.8996	2.731	2.356	2.141
x2 = 0.9499	2.787	2.437	2.209

CCOC(C)(C)C + CCCCOCCO
viscosity [mPa·s], 101 kPa
Settings	293.15 K	298.15 K	303.15 K
x1 = 0.0499	2.901	2.558	2.239
x1 = 0.1	2.603	2.314	2.038
x1 = 0.1511	2.336	2.092	1.85
x1 = 0.2007	2.107	1.899	1.687
x1 = 0.2489	1.91	1.731	1.545
x1 = 0.2999	1.725	1.573	1.412
x1 = 0.3421	1.589	1.455	1.312
x1 = 0.4018	1.417	1.305	1.186
x1 = 0.45	1.296	1.198	1.094
x1 = 0.5002	1.183	1.097	1.007
x1 = 0.5521	1.079	1.004	0.925
x1 = 0.5998	0.993	0.926	0.857
x1 = 0.6538	0.906	0.847	0.786
x1 = 0.6987	0.84	0.788	0.734
x1 = 0.7501	0.773	0.727	0.679
x1 = 0.8	0.714	0.673	0.632
x1 = 0.8492	0.661	0.626	0.59
x1 = 0.8997	0.612	0.581	0.55
x1 = 0.9493	0.57	0.541	0.514

CCCNCCC + CCCCOCCOCCO
viscosity [mPa·s], 100 kPa
Settings	298.15 K	303.15 K	308.15 K
x2 = 0.05007	0.5938	0.5507	0.5178
x2 = 0.1002	0.6906	0.6377	0.5959
x2 = 0.1502	0.8054	0.7394	0.6889
x2 = 0.2	0.9457	0.8562	0.7964
x2 = 0.3001	1.339	1.183	1.093
x2 = 0.3999	1.79	1.571	1.437
x2 = 0.4999	2.311	1.998	1.819
x2 = 0.5997	2.952	2.519	2.248
x2 = 0.7	3.584	3.042	2.71
x2 = 0.7999	4.119	3.507	3.124
x2 = 0.8998	4.617	3.926	3.5
x2 = 0.9491	4.857	4.132	3.683

CC(=O)[O-].CCCC[NH2+]CCO + CCCCn1cc[n+](C)c1.COP(=O)([O-])OC
viscosity [mPa·s], 101 kPa
Settings	x1 = 0.1014	x1 = 0.2979	x1 = 0.4067	x1 = 0.4989	x1 = 0.8011	x1 = 0.8913
293.15 K	730.5	–	–	502.5	741.5	–
298.15 K	–	392.5	359.5	–	–	632.5

CC(=O)[O-].CCCC[NH2+]CCO + CCCCn1cc[n+](C)c1.O=S(=O)([N-]S(=O)(=O)C(F)(F)F)C(F)(F)F
Settings	viscosity [mPa·s]
308.15 K, 101 kPa, x1 = 0.901	343.5

CC(C)O + CCCO
viscosity [mPa·s], 101 kPa
Settings	293.15 K	298.15 K	303.15 K	313.15 K	323.15 K
x2 = 0.1001	2.369	–	1.776	1.349	1.048
x2 = 0.172	–	2.066	–	–	–
x2 = 0.2006	2.359	–	1.777	1.36	1.066
x2 = 0.2956	2.344	–	1.773	1.365	1.077
x2 = 0.33	–	1.997	–	–	–
x2 = 0.3999	2.322	–	1.766	1.368	1.084
x2 = 0.4993	2.3	–	1.758	1.368	1.086
x2 = 0.5	–	2.02	–	–	–
x2 = 0.6	2.278	–	1.75	1.367	1.088
x2 = 0.665	–	1.985	–	–	–
x2 = 0.6973	2.258	–	1.744	1.368	1.089
x2 = 0.754	–	1.985	–	–	–
x2 = 0.7993	2.238	–	1.739	1.368	1.091
x2 = 0.826	–	1.972	–	–	–
x2 = 0.8994	2.219	–	1.734	1.369	1.096

CCOC(=O)[C@@H](O)[C@H](O)C(=O)OCC + CCCO
viscosity [mPa·s], 101 kPa
Settings	x1 = 0.1	x1 = 0.2	x1 = 0.2999	x1 = 0.3999	x1 = 0.5001	x1 = 0.5999	x1 = 0.7	x1 = 0.7996	x1 = 0.9
293.15 K	3.256	5.15	8.204	13.19	21	32.75	52.88	84.67	135.1
298.15 K	2.832	4.359	6.759	10.53	16.09	24.37	37.73	57.79	88.2
303.15 K	2.467	3.7	5.586	8.415	12.64	18.48	27.67	40.91	60.18
308.15 K	2.164	3.17	4.671	6.886	10.06	14.35	20.86	29.93	42.64
313.15 K	1.913	2.731	3.92	5.661	8.093	11.3	16.05	22.45	31.15
318.15 K	1.694	2.385	3.38	4.782	6.694	9.164	12.71	17.37	23.52
323.15 K	1.52	2.108	2.94	4.092	5.623	7.561	10.28	13.77	18.27
